Data on 16 compounds can be found in US10196345B2, “MAO-B selective inhibitor compounds, pharmaceutical compositions thereof and uses thereof” (The University of British Columbia, priority 2013, dated 2019).

One data set concerns the target T1, recombinant human MAO-A (Homo sapiens, UniProt P21397).
T1 sequence (P21397 1-527): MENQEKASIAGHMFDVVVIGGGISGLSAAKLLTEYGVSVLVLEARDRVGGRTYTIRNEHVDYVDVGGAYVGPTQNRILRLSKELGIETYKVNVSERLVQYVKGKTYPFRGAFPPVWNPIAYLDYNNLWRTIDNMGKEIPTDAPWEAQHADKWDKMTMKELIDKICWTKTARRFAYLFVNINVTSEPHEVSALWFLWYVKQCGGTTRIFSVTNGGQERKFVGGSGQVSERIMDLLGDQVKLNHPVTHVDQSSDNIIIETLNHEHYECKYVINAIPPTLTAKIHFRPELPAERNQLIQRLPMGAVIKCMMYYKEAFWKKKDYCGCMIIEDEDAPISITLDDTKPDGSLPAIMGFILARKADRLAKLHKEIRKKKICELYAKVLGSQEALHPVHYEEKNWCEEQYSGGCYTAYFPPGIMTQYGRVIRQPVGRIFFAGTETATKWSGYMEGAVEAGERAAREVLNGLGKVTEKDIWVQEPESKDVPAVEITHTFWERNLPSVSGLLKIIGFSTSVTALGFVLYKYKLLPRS
Briefly: Cell-free Fluorescent Monoamine Oxidase A&B Detection Assay, MAO-A. Format: biochemical. The settings on record: for IC50: read-out: IC50 MAO-A. How it is done:
(§1) The assay was repeated to confirm data.
(§2) MAO B specific inhibitory activity and selectivity over MAO A is assayed using a commercial kit [Fluoro MAO A and B detection kit (Cell Technology Inc™)]. This kit uses a non-fluorescent detection reagent to measure H2O2 released from the conversion of an MAO A and MAO B substrate specific to its aldehyde. Furthermore, H2O2 oxidizes the detection reagent in a 1:1 stoichiometry to produce a fluorescent product (resorufin). […] This information is then provided to the medicinal chemists to help direct synthesis of subsequent iterations.

For data set [1], the system named is Madin Darby canine kidney (MDCK-I) cells. Briefly: TEER in MDCK-I cells. Format: cell-based. Conditions: for 144-hour barrier (TEER) vs control: MDCK-I, treated at 72 hours; for effect on TEER (MAO A, B, AB inhibitors): no concentration given. The procedure: In each case, TEER was measured every 48 hours after treatment.
Transwell cultures were treated at 72 hours (T) post-cell plating.
Transepithelial Resistance (TER) is a common method to screen for barrier integrity. […] Fluorescein isothiocyanate conjugated 10 kD dextran (Invitrogen™) will be added to the apical Transwell™ compartment, fixed, and examined for dextran permeation (Umeda et al., 2006).
Amphiregulin (AR) is an EGFR binding ligand and may play a pivotal role in the previously described signaling axis (see FIGS. 15-17). […] (ii) GI [intestinal epithelial cell (IEC)] and (iii) classical [Madin-Darby canine kidney (MDCK-1)].

For data set [2] the following is noted: 14 week study, cited from earlier work.
Another data set deals with T2, recombinant human MAO-B (Homo sapiens, UniProt P27338).
T2 sequence (P27338 1-520): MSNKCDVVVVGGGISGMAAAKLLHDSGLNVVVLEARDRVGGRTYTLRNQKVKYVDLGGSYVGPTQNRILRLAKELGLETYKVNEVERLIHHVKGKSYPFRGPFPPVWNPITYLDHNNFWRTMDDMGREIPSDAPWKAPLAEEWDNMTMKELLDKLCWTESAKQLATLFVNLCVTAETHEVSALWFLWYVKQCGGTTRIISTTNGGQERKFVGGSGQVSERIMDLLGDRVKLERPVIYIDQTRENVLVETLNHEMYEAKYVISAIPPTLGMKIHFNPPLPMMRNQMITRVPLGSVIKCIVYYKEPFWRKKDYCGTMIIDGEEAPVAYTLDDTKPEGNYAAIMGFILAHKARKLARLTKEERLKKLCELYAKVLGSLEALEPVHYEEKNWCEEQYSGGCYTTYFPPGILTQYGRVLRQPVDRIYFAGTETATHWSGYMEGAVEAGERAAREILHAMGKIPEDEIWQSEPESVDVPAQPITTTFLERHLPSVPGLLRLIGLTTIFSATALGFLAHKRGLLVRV
Description: Cell-free Fluorescent Monoamine Oxidase A&B Detection Assay, MAO-B. The settings on record: for IC50: read-out: IC50 MAO-B. Format: biochemical. How it is done:
as §1, §2

The nature of data set [3]: in vitro BBB permeability in MDCK-WT cells. Conditions: dog, MDCK. The source says: (§3) Wildtype Madin-Darby canine cells (MDCK-WT) were used to predict CNS permeability of compounds PS-RG0103, PS-RG0216, PS-RG0245 and PS-AD0191. […] J Allergy Clin Immunol. 1990; 86(6 pt 2): p. 1025-8.
(§4) Novel MAO B inhibitors selected based on the above screening program will be screened using an in vitro model of blood brain barrier (BBB). Madin-Darby canine kidney (MDCK-WT) and MDCK cells transfected with the human MDR1 gene (MDCK-MDR1) are well established in vitro models used to predict a compound's ability to permeate the blood brain barrier (BBB). […] Apparent permeability (Papp), Efflux ratio (Papp B-A/Papp A-B), as well as the Net flux ratio (Efflux ratioMDCK-MDR1/Efflux ratioMDCK-WT) can be calculated to identify compound BBB permeability and identify compounds that are substrates of P-gp.

The conditions of data set [4]: hepatocytes, 1 h.
Data set [5] can be described thus: stability assay in mouse liver microsomes. Conditions: after 60 minutes at room temperature. Background: Microsomes from liver hold many membrane-bound enzymes, among them those of drug oxidation.
Data set [6] in a line: stability assay in human liver microsomes. The settings on record: after 60 minutes at room temperature.
In data set [7] the test system is Wildtype Madin-Darby canine cells (MDCK-WT). Briefly: in vitro BBB permeability in MDCK-WT cells. The settings on record: MDCK-WT; one-way ANOVA, Dunnett's test.
Excerpt: as §3, §4

The mark [8] stands for this setting: cell-free, recombinant human MAO-A.
Setting [9] is: cell-free, recombinant human MAO-A, read-out: IC90 MAO-A.

Several values for one entry are separate records, joined by “and”; a condition that tells them apart may be missing. Identical values can stand only once. Entries after “also recorded” stand apart in the source; their conditions may differ. Counter-ions that a name gives are not always drawn. Like-named read-outs stand apart in the source and are kept apart here.

As usually defined, the IC90 is the concentration needed for an effect of 90%. `C#CCN(C)CCCOc1ccc(Cl)cc1Cl` [Clorgyline]: the 90% effect concentration (IC90) on recombinant human MAO-A (read-out: IC90 MAO-A (μM)) is 0.00624 µM. Further, the “144-hour barrier (TEER) vs control” value in [1] (5 μm inhibitor) and in data set [1] (40 μm inhibitor) was “significantly reduced the barrier” in each case. In addition, the “effect on TEER (MAO A, B, AB inhibitors)” value in data set [1] was “generally reduced TEER”.

In the case of `C#CCN(C)[C@H](C)Cc1ccccc1` [L-selegiline], the “total body fat reduction compared to control rats” value in data set [2] was 30%. For the same compound, in [2] (rats), the “food intake vs untreated controls” value is on record as “comparable”, the “lower weight gain compared to untreated controls” value is reported as 14% and the “plasma leptin levels reduction” value was 41%.

By IC50 is commonly meant the concentration at which inhibition is half-maximal. The Papp is the rate of passage across a membrane or cell layer, normalised by area and donor concentration. The low end stands for slow passage, the high end for fast passage. For the compound `CN(CC(=O)O)[C@H](CC#N)Cc1ccc(OCc2ccc(Cl)c(Cl)c2)cc1.Cl` [PS-AD0191, (S)—N-(1-cyano-3-(4-((3,4-dichlorobenzyl)oxy)phenyl)propan-2-yl)-N-methylglycine], the IC50 at recombinant human MAO-A (setting [8]) was 54.6 µM; at recombinant human MAO-B, 0.3 µM and 0.302 µM. For the same compound, the values for the IC90 on recombinant human MAO-A (setting [9]) and at recombinant human MAO-B were 424 µM and 1.03 µM, respectively. The compound also came in with a Papp in [3] of 7.9 ± 1.4 ×10⁻⁶ cm/s.

In the case of `C[C@H](Cc1ccc(OCc2cccc(Cl)c2)cc1)N(C)CC(=O)O` [PS-RG0103, N—((R)-(1-(4-(3-chlorobenzyloxy)phenyl)propan-2-yl)(methyl))glycine hydrochloride], at recombinant human MAO-A (cell-free, recombinant human MAO-A, hydrochloride), the “IC50 MAO-A (μM)” value was “no activity on MAO-A; also recorded: Does not”. Also, on recombinant human MAO-B, the 90% effect concentration (IC90) was 2.27 µM; the half-maximal inhibitory concentration (IC50) was 0.27 µM and 0.275 µM. In [3], the apparent permeability (Papp) came to 2.2 ± 0.2 ×10⁻⁶ cm/s. In addition, the “compound remaining, mouse hepatocyte stability” value in [4] is 101%. Also, in [5], the “compound remaining in mouse microsome” value is reported as 69%. Moreover, in [6], the “compound remaining in human microsome” value worked out at 93%.

With `CN(CC(=O)O)c1ccc(CCOCc2ccccc2)cc1.Cl` [PS-RG0210], the “IC50 MAO-A (μM)” value on recombinant human MAO-A (setting [8]) is given as “Does not”. In addition, at recombinant human MAO-B, the concentration for an effect of 90% (IC90) was 708 µM and the half-maximal inhibitory concentration (IC50) was 23.6 µM.

Turning to `C[C@H](Cc1ccc(OCc2ccccn2)cc1)N(C)CC(=O)O.Cl.Cl` [PS-RG0217, (R)—N-methyl-N-(1-(4-(pyridin-2-ylmethoxy)phenyl)propan-2-yl)glycine hydrochloride], the “IC50 MAO-A (μM)” value at recombinant human MAO-A (setting [8]) is “Does not”. For the same compound, on recombinant human MAO-B, the IC90 came to 577 µM and the IC50 turned out to be 26.6 µM.

As for `C[C@H](Cc1ccc(OCc2cccnc2)cc1)N(C)CC(=O)O.Cl.Cl` [PS-RG0218], at recombinant human MAO-A (setting [8]), the “IC50 MAO-A (μM)” value is given as “Does not”. Also, the “IC90 MAO-B (μM)” value at recombinant human MAO-B was “Does not”.

Turning to `C[C@H](Cc1ccc(OCC(=O)O)cc1)N(C)CC(=O)O.Cl` [PS-RG0219], on recombinant human MAO-A (setting [8]), the “IC50 MAO-A (μM)” value was “Does not”. In addition, the “IC90 MAO-B (μM)” value at recombinant human MAO-B was “Does not”.

For `C[C@H](Cc1ccc(OCc2ccc(Cl)cc2)cc1)N(C)CC(=O)O` [PS-RG0226, (R)—N-(1-(4-((4-chlorobenzyl)oxy)phenyl)propan-2-yl)-N-methylglycine hydrochloride], the concentration for half-maximal inhibition (IC50) amounted to 198 µM at recombinant human MAO-A (setting [8]) and 0.505 µM on recombinant human MAO-B. Besides, the IC90 was 1260 µM on recombinant human MAO-A (setting [9]) and 3.42 µM on recombinant human MAO-B.

Regarding `C[C@H](Cc1ccc(OCc2ccc3ccccc3c2)cc1)N(C)CC(=O)O` [PS-RG0227, (R)—N-methyl-N-(1-(4-(naphthalen-2-ylmethoxy)phenyl)propan-2-yl)glycine hydrochloride], the IC50 on recombinant human MAO-A (setting [8]) was 955 µM; at recombinant human MAO-B, 11.5 µM. Moreover, the 90% effect concentration (IC90) stood at 63000 µM on recombinant human MAO-A (setting [9]) and 843 µM at recombinant human MAO-B.

Regarding `C[C@H](Cc1ccc(OCc2ccc(Cl)c(Cl)c2)cc1)N(C)CC(=O)O.Cl` [PS-RG0245, (R)—N-(1-(4-((3,4-dichlorobenzyl)oxy)phenyl)propan-2-yl)-N-methylglycine hydrochloride], the IC50 at recombinant human MAO-A (setting [8]) is 17.2 µM and 17.1 µM; at recombinant human MAO-B, 0.21 µM and 0.207 µM. The values for the IC90 on recombinant human MAO-A (setting [9]) and on recombinant human MAO-B were 99.8 µM and 0.873 µM, respectively. The compound further came in with an apparent permeability (Papp) in data set [3] of 3.6 ± 0.2 ×10⁻⁶ cm/s. Besides, in data set [7], the “permeability compared with cetirizine” value is given as “not different from cetirizine”.

Regarding `COC(=O)c1ccc(COc2ccc(C[C@@H](C)N(C)CC(=O)O)cc2)cc1.Cl` [PS-RG0246, (R)—N-(1-(4-((4-(methoxycarbonyl)benzyl)oxy)phenyl)propan-2-yl)-N-methylglycine hydrochloride], the “IC50 MAO-A (μM)” value at recombinant human MAO-A (setting [8]) is given as “Does not”. At recombinant human MAO-B, the IC90 was found to be 10600 µM and the 50% inhibitory concentration (IC50) is 361 µM.

For the compound `C[C@H](Cc1ccc(OCCc2ccccc2)cc1)N(C)CC(=O)O.Cl` [PS-RG0247], on recombinant human MAO-A (setting [8]), the “IC50 MAO-A (μM)” value is “Does not”. Besides, at recombinant human MAO-B, the IC90 is 619 µM and the IC50 is 19.3 µM.

Regarding `COc1cccc(COc2ccc(C[C@@H](C)N(C)CC(=O)O)cc2)c1` [PS-RG0264, (R)—N-(1-(4-((3-methoxybenzyl)oxy)phenyl)propan-2-yl)-N-methylglycine hydrochloride], the concentration for half-maximal inhibition (IC50) at recombinant human MAO-A (setting [8]) came to 359 µM; on recombinant human MAO-B it was 2.22 µM. The IC90 came out at 78500 µM at recombinant human MAO-A (setting [9]) and 50.5 µM at recombinant human MAO-B.

Consider `O=C(NCCN1CCOCC1)c1ccc(Cl)cc1` [moclobemide], for which the “144-hour barrier (TEER) vs control” value in data set [1] (5 μm inhibitor) is “increased over control”. In addition, in data set [1] (low doses), the “barrier integrity at low doses” value is “small increase in the barrier integrity”. In addition, the “effect on TEER (MAO A, B, AB inhibitors)” value in data set [1] is listed as “generally reduced TEER”.

`C#CCN(C)Cc1ccccc1` [pargyline]: the “144-hour barrier (TEER) vs control” value in data set [1] (5 μm inhibitor) and in data set [1] (40 μm inhibitor) was “increased over control” in each case. Also, the “effect on TEER (MAO A, B, AB inhibitors)” value in data set [1] was “increased TEER”.
